ChEMBL document CHEMBL1134979, “A glucose-selective fluorescence sensor based on boronic acid-diol recognition” (Bioorg Med Chem Lett, 2002)

Key:
[1] = Fluorescence intensity change with respect to glucose binding (100 mM) was determined by Fluorescence experiment; Increased by 7.0 fold
[2] = Selectivity for Glucose to Fructose was determined by Fluorescence experiment
[3] = Binding constant for complexation with glucose by Fluorescence experiment
[4] = Binding constant for complexation with Fructose by Fluorescence experiment
[5] = Binding constant for complexation with Galactose by Fluorescence experiment
[6] = Fluorescence intensity change with respect to glucose binding (100 mM) was determined by Fluorescence experiment; PBA is not fluorescent.
[7] = Binding constant for complexation with Fructose by Fluorescence experiment; Fluorescence was too small for an accurate Ka determination.
[8] = Selectivity for Glucose to Fructose was determined by Fluorescence experiment; Fluorescence intensity change upon binding with fructose was too small for an accurate Ka determination.
[9] = Fluorescence intensity change with respect to glucose binding (100 mM) was determined by Fluorescence experiment; Decreased by 0.5 fold
[10] = Fluorescence intensity change with respect to glucose binding (100 mM) was determined by Fluorescence experiment; Increased by 4.3 fold
[11] = Fluorescence intensity change with respect to glucose binding (100 mM) was determined by Fluorescence experiment; Increased by 5.5 fold
[12] = Fluorescence intensity change with respect to glucose binding (100 mM) was determined by Fluorescence experiment; Decreased by 0.4 fold
[13] = Fluorescence intensity change with respect to glucose binding (100 mM) was determined by Fluorescence experiment; Increased by 0.9 fold

In the case of `CN(Cc1ccccc1B(O)O)Cc1c2ccccc2c(CN(C)C(=O)Cc2ccccc2CC(=O)N(C)Cc2c3ccccc3c(CN(C)Cc3ccccc3B(O)O)c3ccccc23)c2ccccc12`, the Activity [1] is reported as “Increased by 7.0 fold”, the Selectivity [2] is reported as 43 and the Ka [3] is reported as 1470 M⁻¹. The Ka [4] was 34 M⁻¹ and the Ka [5] was 30 M⁻¹.

`OB(O)c1ccccc1` showed a Selectivity [2] of 0.03, a Ka [3] of 5 M⁻¹ and a Ka [4] of 162 M⁻¹. The Ka [5] was 15 M⁻¹ and the Activity [6] was “PBA is not fluorescent”.

Work on `CN(Cc1ccccc1B(O)O)Cc1c2ccccc2c(CN(C)Cc2ccccc2B(O)O)c2ccccc12` yielded a Selectivity [2] of 13, a Ka [3] of 3980 M⁻¹ and a Ka [4] of 316 M⁻¹. The Ka [5] was 158 M⁻¹.

With `CC1=C2C[C@H]3Cc4c(CO)oc(-c5ccc(B(O)O)cc5)c4C3=C2Oc2cc(B(O)O)ccc21` the Ka [3] was 4000 M⁻¹, the Ka [7] was “Fluorescence was too small for an accurate Ka determination” and the Selectivity [8] was “Fluorescence intensity change upon binding with fructose was too small for an accurate Ka determination”. For the same compound, the Activity [9] was “Decreased by 0.5 fold” and the Ka [5] was 100 M⁻¹.

Work on `CN(Cc1ccccc1B(O)O)Cc1c2ccccc2c(CN(C)C(=O)CCCCC(=O)N(C)Cc2c3ccccc3c(CN(C)Cc3ccccc3B(O)O)c3ccccc23)c2ccccc12` yielded a Selectivity [2] of 8, a Ka [3] of 638 M⁻¹ and a Ka [4] of 77 M⁻¹. The Activity [10] was “Increased by 4.3 fold” and the Ka [5] was 105 M⁻¹.

`CN(Cc1ccccc1B(O)O)Cc1c2ccccc2c(CN(C)C(=O)c2ccccc2C(=O)N(C)Cc2c3ccccc3c(CN(C)Cc3ccccc3B(O)O)c3ccccc23)c2ccccc12` gave a Selectivity [2] of 0.6, a Ka [3] of 178 M⁻¹ and a Ka [4] of 283 M⁻¹. The Activity [11] was “Increased by 5.5 fold” and the Ka [5] was 33 M⁻¹.

In the case of `O=C1c2cccc3cc([N+](=O)[O-])cc(c23)C(=O)N1c1cccc(B(O)O)c1`, the Selectivity [2] is reported as 0.08, the Ka [3] is reported as 38 M⁻¹ and the Ka [4] is reported as 476 M⁻¹. For the same compound, the Activity [12] was “Decreased by 0.4 fold”.

With `OB(O)c1ccc[n+](Cc2c3ccccc3c(C[n+]3cccc(B(O)O)c3)c3ccccc23)c1` the Activity [13] was “Increased by 0.9 fold” and the Ka [3] was 2510 M⁻¹.
